The record followed here is US20230158063A1, “AIRWAY […] THERAPY TO TREAT VIRAL R[…]” (THE TRUSTEES OF INDIANA UNIVERSITY, priority 2020, published 2023).

The test system of this test is primary normal human airway epithelial (HAE) cells. In words: Intracellular pH of HAE cells by pH-sensitive dye fluorescence microscopy. Format: cell-based. Particulars: HAE cells pre-loaded with 1.25 μM BCECF-AM; normalized to pre-treatment; n=3; ZnCl2 at 100 μM.

For `[Cl-].[Cl-].[Zn+2]` [ZnCl2, zinc chloride], the “BCECF-AM fluorescence intensity (increases as pH increases)” value is recorded as “essentially eliminating fluorescence”.
